Assay results: ChEMBL document CHEMBL5154900, “Design and Synthesis of Dual EZH2/BRD4 Inhibitors to Target Solid Tumors” (J Med Chem, 2022)
Calls of active or inactive are those of the source.

Legend:
[1] = biological target: T1, Histone-lysine N-methyltransferase EZH2 (Homo sapiens, UniProt Q15910); assay: Inhibition of EZH2 in human ASPC1 cells assessed as decrease in H3K27me3 level at 0.05 uM incubated for 72 hrs by Western blot analysis; type: cell-based
[2] = AUC in 12 hr fasted BALB/c mouse at 80 mg/kg, ip measured for 0.083 to 24 hrs by UPLC-MS/MS analysis; type: ADME, organism-based; design: time lower 0.083 hrs, dose 80 mg/kg, time upper 24 hrs, route ip; settings: in vivo
ASPC1 [3] = assay: Induction of apoptosis in human ASPC-1 cells assessed as downregulation of Bcl-2 protein at 1 uM inubated for 72 hrs by Western blot analysis; type: functional, cell-based
HCT-116 [4] = assay: Induction of apoptosis in human HCT116 cells assessed as downregulation of Bcl-2 protein at 1 uM inubated for 72 hrs by Western blot analysis; type: functional, cell-based
[5] = biological target: T2, Bromodomain-containing protein 4 (Homo sapiens, UniProt O60885); assay: Binding affinity to BRD4 in human A549 cell lysate assessed as increase in thermal stability at 10 uM incubated for 1 hr followed by temperature treatment at 45 to 54.5 degC for 3 mins by thermal shift assay; type: subcellular; settings: time 63.0 min
[6] = Permeability of compound across apical to basolateral side in human Caco-2 cells measured for 1 to 3 hrs by LC-MS analysis; type: ADME, cell-based; settings: time 1-3 hrs
A549 [7] = assay: Induction of apoptosis in human A549 cells assessed as downregulation of Bcl-2 protein at 1 uM inubated for 72 hrs by Western blot analysis; type: functional, cell-based
[8] = Cmax in 12 hr fasted BALB/c mouse at 80 mg/kg, po measured for 0.083 to 24 hrs by UPLC-MS/MS analysis; type: ADME, organism-based; design: dose 80 mg/kg, time 0.083-24 hrs, route po; settings: in vivo
[9] = biological target: T2, Bromodomain-containing protein 4; assay: Inhibition of BRD4 in human ASPC1 cells assessed as decrease in c-Myc level at 1 uM incubated for 72 hrs by Western blot analysis; type: cell-based
A549 [10] = assay: Effect on TNFRSF21 mRNA levels in human A549 cells at 5 uM incubated for 48 hrs by RT-qPCR analysis; type: functional, cell-based
A549 [11] = assay: Induction of apoptosis in human A549 cells assessed as upregulation of p21 protein at 1 uM inubated for 72 hrs by Western blot analysis; type: functional, cell-based
[12] = biological target: T1, Histone-lysine N-methyltransferase EZH2; assay: Binding affinity to EZH2 in human A549 cell lysate assessed as increase in thermal stability at 10 uM incubated for 1 hr followed by temperature treatment at 45 to 54.5 degC for 3 mins by thermal shift assay; type: subcellular; settings: time 63.0 min
[13] = Half life in 12 hr fasted BALB/c mouse at 80 mg/kg, po measured for 0.083 to 24 hrs by UPLC-MS/MS analysis; type: ADME, organism-based; settings: in vivo, time 0.083-24 hrs
[14] = biological target: T1, Histone-lysine N-methyltransferase EZH2; assay: Inhibition of EZH2 in human ASPC1 cells assessed as decrease in H3K27me3 levels at 1 uM incubated for 72 hrs by Western blot analysis; type: cell-based
HCT-116 [15] = assay: Induction of cell cycle arrest in 24 hr starved human HCT-116 cells assessed as accumulation at G0/G1 phase at 1 uM measured after 48 hrs by PI staining based flow cytometric analysis; type: functional
HCT-116 [16] = assay: Antitumor activity against human HCT-116 cells assessed as inhibition of colony formation measured after 12 to 20 days by crystal violet staining based analysis; type: functional, cell-based; settings: dose <= 0.4 µM, time 12-20 day, DDE = dose-dependent effect
HCT-116 [17] = assay: Effect on TRHDE mRNA levels in human HCT-116 cells at 5 uM incubated for 48 hrs by RT-qPCR analysis; type: functional, cell-based
[18] = Toxicity in BALB/c mouse xenografted with human A549 cells assessed as adverse effects at 60 mg/kg, ip administered 6 times weekly for 38 days; type: organism-based; settings: in vivo, 912 h, time 38 day
ASPC1 [19] = assay: Effect on TXINP mRNA levels in human ASPC1 cells at 5 uM incubated for 48 hrs by RT-qPCR analysis; type: functional, cell-based
ASPC1 [20] = assay: Antiproliferative activity against human ASPC1 cells assessed as cell growth inhibition incubated for 6 days by MTS assay; type: functional, cell-based; settings: ASPC1, 144 h, read-out: IC50
ASPC1 [21] = assay: Effect on TRHDE mRNA levels in human ASPC1 cells at 5 uM incubated for 48 hrs by RT-qPCR analysis; type: functional, cell-based
A549 [22] = assay: Antiproliferative activity against human A549 cells assessed as inhibition of cell proliferation at 1 uM incubated for 4 days by cell counter method; type: functional, cell-based; settings: time 4.0 day
HCT-116 [23] = assay: Induction of apoptosis in human HCT116 cells assessed as downregulation of Bcl-xl protein at 1 uM inubated for 72 hrs by Western blot analysis; type: functional, cell-based
A549 [24] = assay: Effect on TRHDE mRNA levels in human A549 cells at 5 uM incubated for 48 hrs by RT-qPCR analysis; type: functional, cell-based

T1 sequence (Q15910 whole entry, looked up): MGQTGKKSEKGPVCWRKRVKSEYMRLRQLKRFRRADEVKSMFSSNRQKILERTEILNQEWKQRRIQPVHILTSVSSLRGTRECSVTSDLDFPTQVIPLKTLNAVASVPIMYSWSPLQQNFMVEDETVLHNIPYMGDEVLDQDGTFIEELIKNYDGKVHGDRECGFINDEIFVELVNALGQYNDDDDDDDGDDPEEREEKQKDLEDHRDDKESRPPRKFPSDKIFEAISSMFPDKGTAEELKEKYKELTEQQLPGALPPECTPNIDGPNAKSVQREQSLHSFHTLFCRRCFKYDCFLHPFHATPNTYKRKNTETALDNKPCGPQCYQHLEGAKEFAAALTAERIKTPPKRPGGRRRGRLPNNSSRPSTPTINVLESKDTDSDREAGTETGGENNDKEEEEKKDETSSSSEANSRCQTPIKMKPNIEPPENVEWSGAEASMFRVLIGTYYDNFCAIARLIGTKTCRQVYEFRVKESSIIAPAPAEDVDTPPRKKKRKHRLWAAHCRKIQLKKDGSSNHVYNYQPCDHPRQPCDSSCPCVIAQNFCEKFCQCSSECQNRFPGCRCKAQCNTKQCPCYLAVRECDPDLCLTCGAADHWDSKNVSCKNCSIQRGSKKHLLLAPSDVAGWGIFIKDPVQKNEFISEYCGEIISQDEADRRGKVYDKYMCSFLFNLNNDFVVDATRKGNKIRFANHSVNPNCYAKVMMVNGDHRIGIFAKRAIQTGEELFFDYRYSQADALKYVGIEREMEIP

CCN(c1cc(-c2ccc(OCCCCCNC(=O)C[C@@H]3N=C(c4ccc(Cl)cc4)c4c(sc(C)c4C)-n4c(C)nnc43)cc2)cc(C(=O)NCc2c(C)cc(C)[nH]c2=O)c1C)C1CCOCC1
0.69 µM: IC50 (ASPC1 [20])
4.38 µg/mL: Cmax [8]
Impermeable: permeability [6]
active: inhibition [1] | Activity (ASPC1 [3]) | Activity (HCT-116 [4]) | Activity [5] | Activity (A549 [7]) | inhibition [9] | Activity (A549 [10]) | Activity (A549 [11]) | Activity [12] | inhibition [14] | Activity (HCT-116 [15]) | Activity (HCT-116 [16]) Dde | Activity (HCT-116 [17]) | Activity (ASPC1 [19]) | Activity (ASPC1 [21]) | Activity (A549 [22]) | Activity (HCT-116 [23]) | Activity (A549 [24])
273 µg·h/mL: AUC [2]
Non-Toxic: Activity [18]
4.16 h: half-life [13]
